From patent US11254686B1 (Corvus Pharmaceuticals, Inc., priority 2017, dated 2022)

Columns and labels:
adenosine A2B receptor = adenosine A2B receptor (Homo sapiens (Human), UniProt P29275); experiment: Adenosine receptor activity assay (Table 1), A2B activity; format: biochemical; settings: for Ratio: A2A activity to A2B activity (A2A/A2B); for IC50: read-out: Ave A2B cAMP IC50
adenosine A2A receptor = adenosine A2A receptor (Homo sapiens (Human), UniProt P29274); experiment: Adenosine receptor activity assay (Table 1), A2A activity; format: biochemical; settings: read-out: Ave A2A cAMP IC50
Sequence of adenosine A2A receptor (P29274 whole entry): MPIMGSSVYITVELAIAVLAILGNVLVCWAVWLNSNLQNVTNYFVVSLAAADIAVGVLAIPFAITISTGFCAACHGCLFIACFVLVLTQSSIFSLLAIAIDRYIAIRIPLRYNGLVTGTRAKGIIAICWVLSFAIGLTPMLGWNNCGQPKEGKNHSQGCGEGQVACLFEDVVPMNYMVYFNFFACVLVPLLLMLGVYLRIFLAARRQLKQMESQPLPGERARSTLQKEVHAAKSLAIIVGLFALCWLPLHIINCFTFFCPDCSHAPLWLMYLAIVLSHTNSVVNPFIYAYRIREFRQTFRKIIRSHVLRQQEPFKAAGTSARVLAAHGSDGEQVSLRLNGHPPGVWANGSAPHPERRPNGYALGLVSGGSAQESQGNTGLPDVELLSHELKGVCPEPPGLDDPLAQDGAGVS

Sequence of adenosine A2B receptor (P29275 whole entry): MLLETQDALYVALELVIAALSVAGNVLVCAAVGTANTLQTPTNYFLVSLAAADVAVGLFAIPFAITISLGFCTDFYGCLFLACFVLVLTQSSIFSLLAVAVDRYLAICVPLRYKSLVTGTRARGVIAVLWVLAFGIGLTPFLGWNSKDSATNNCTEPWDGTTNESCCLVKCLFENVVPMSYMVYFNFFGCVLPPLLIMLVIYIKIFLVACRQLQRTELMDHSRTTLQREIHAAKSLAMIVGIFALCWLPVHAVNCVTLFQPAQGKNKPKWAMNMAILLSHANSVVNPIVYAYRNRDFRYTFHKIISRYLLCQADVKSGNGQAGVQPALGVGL

Ratio (adenosine A2B receptor) | IC50 (adenosine A2B receptor) [nM] | IC50 (adenosine A2A receptor) [nM] | Structure (SMILES)
5.70 | 10 to 50 | 50 to 100 | COCC(Nc1nc(C(=O)N2CC(OC)C2)c2sccc2n1)c1cccnc1 (centres unmarked) [Example Z217, (2-((2-Methoxy-1-(pyridin-3-yl)ethyl)amino)thieno[3,2-d]pyrimidin-4-yl)(3-methoxyazetidin-1-yl)methanone]
8.99 | 10 to 50 | 100 to 500 | COCC(Nc1nc(C(=O)N[C@H]2C[C@@H](O)C2)c2sccc2n1)c1cccnc1 (some centres unmarked) [Example Z218, N-((1s,3s)-3-Hydroxycyclobutyl)-2-((2-methoxy-1-(pyridin-3-yl)ethyl)amino)thieno[3,2-d]pyrimidine-4-carboxamide]
44.45 | 100 to 500 | > 500 | C[C@H](Nc1nc(C(=O)N2CC[C@@H](O)C2)c2sc(N)cc2n1)c1cccnc1 [Example Z220, (6-Amino-2-(((S)-1-(pyridin-3-yl)ethyl)amino)thieno[3,2-d]pyrimidin-4-yl)((R)-3-hydroxypyrrolidin-1-yl)methanone]
4.59 | 10 to 50 | 100 to 500 | C[C@H](Nc1nc(C(=O)NCC2CCOCC2)c2sccc2n1)c1ccccn1 [Example Z227, (S)-2-((1-(Pyridin-2-yl)ethyl)amino)-N-((tetrahydro-2H-pyran-4-yl)methyl)thieno[3,2-d]pyrimidine-4-carboxamide]
2.80 | > 500 | > 500 | C[C@H](Nc1nc(C(=O)NC[C@H]2CCCN2C(=O)OC(C)(C)C)c2sccc2n1)c1ccccn1 [Example Z228, tert-Butyl (R)-2-((2-(((S)-1-(pyridin-2-yl)ethyl)amino)thieno[3,2-d]pyrimidine-4-carboxamido)methyl)pyrrolidine-1-carboxylate]
7.45 | 100 to 500 | > 500 | C[C@H](Nc1nc(C(=O)NCC(C)(C)O)c2sccc2n1)c1ccccn1 [Example Z230, (S)—N-(2-Hydroxy-2-methylpropyl)-2-((1-(pyridin-2-yl)ethyl)amino)thieno[3,2-d]pyrimidine-4-carboxamide]
2.57 | 50 to 100 | 100 to 500 | CN(C(=O)OC(C)(C)C)C1CN(C(=O)c2nc(NCc3cncc(F)c3)nc3ccsc23)C1 [Example Z235, tert-Butyl (1-(2-(((5-fluoropyridin-3-yl)methyl)amino)thieno[3,2-d]pyrimidine-4-carbonyl)azetidin-3-yl)(methyl)carbamate]
1.87 | 50 to 100 | 100 to 500 | CC(C)(C)OC(=O)N[C@H]1CCN(C(=O)c2nc(NCc3cncc(F)c3)nc3ccsc23)C1 [Example Z245, tert-Butyl (S)-(1-(2-(((5-fluoropyridin-3-yl)methyl)amino)thieno[3,2-d]pyrimidine-4-carbonyl)pyrrolidin-3-yl)carbamate]
 | 10 to 50 | 100 to 500 | C[C@H](Nc1nc(C(=O)N2CC[C@@H](NC(=O)OC(C)(C)C)C2)c2sccc2n1)c1ccccn1 [Example Z246, tert-Butyl ((R)-1-(2-(((S)-1-(pyridin-2-yl)ethyl)amino)thieno[3,2-d]pyrimidine-4-carbonyl)pyrrolidin-3-yl)carbamate]
15.23 | 50 to 100 | > 500 | C[C@H](Nc1nc(C(=O)N2CC(O)C2)c2sc(N)cc2n1)c1cccnc1 [Example Z248, (S)-(6-Amino-2-((1-(pyridin-3-yl)ethyl)amino)thieno[3,2-d]pyrimidin-4-yl)(3-hydroxyazetidin-1-yl)methanone]
9.16 | 50 to 100 | > 500 | O=C(c1nc(NCc2cncc(C(F)(F)F)c2)nc2ccsc12)N1CCC1 [Example Z257, Azetidin-1-yl(2-(((5-(trifluoromethyl)pyridin-3-yl)methyl)amino)thieno[3,2-d]pyrimidin-4-yl)methanone]
1.70 | 100 to 500 | 100 to 500 | O=C(c1nc(NCCc2ccccc2)nc2ccsc12)N1CCCC1 [Example Z258, (2-(Phenethylamino)thieno[3,2-d]pyrimidin-4-yl)(pyrrolidin-1-yl)methanone]
10.23 | 100 to 500 | > 500 | CS(=O)(=O)[C@@H]1CCN(C(=O)c2nc(NCc3cncc(F)c3)nc3ccsc23)C1 [Example Z261, (R)-(2-(((5-Fluoropyridin-3-yl)methyl)amino)thieno[3,2-d]pyrimidin-4-yl)(3-(methylsulfonyl)pyrrolidin-1-yl)methanone]
1.12 | > 500 | > 500 | C[C@H](Nc1nc(C(=O)N2CC[C@@H](S(C)(=O)=O)C2)c2sccc2n1)c1cccnc1 [Example Z262, ((R)-3-(Methylsulfonyl)pyrrolidin-1-yl)(2-(((S)-1-(pyridin-3-yl)ethyl)amino)thieno[3,2-d]pyrimidin-4-yl)methanone]
13.34 | > 500 | > 500 | O=C(c1nc(NCc2cncc(C(F)(F)F)c2)nc2ccsc12)N1CC[C@H](O)C1 [Example Z264, (S)-(3-Hydroxypyrrolidin-1-yl)(2-(((5-(trifluoromethyl)pyridin-3-yl)methyl)amino)thieno[3,2-d]pyrimidin-4-yl)methanone]
16.94 | 100 to 500 | > 500 | C[C@H](O)CNC(=O)c1nc(NCc2cncc(C(F)(F)F)c2)nc2ccsc12 [Example Z265, (S)—N-(2-Hydroxypropyl)-2-(((5-(trifluoromethyl)pyridin-3-yl)methyl)amino)thieno[3,2-d]pyrimidine-4-carboxamide]
34.17 | 100 to 500 | > 500 | C[C@@H](O)CNC(=O)c1nc(NCc2cncc(C(F)(F)F)c2)nc2ccsc12 [Example Z266, (R)—N-(2-Hydroxypropyl)-2-(((5-(trifluoromethyl)pyridin-3-yl)methyl)amino)thieno[3,2-d]pyrimidine-4-carboxamide]
0.36 | > 500 | 100 to 500 | C[C@H](Nc1nc(C(=O)NC(CO)c2cccnc2)c2sccc2n1)c1ccccn1 (stereo partly drawn) [Example Z269, N-(2-Hydroxy-1-(pyridin-3-yl)ethyl)-2-(((S)-1-(pyridin-2-yl)ethyl)amino)thieno[3,2-d]pyrimidine-4-carboxamide]
27.81 | 10 to 50 | > 500 | O=C(c1nc(NC(CO)c2cccnc2)nc2ccsc12)N1CCCC1 (centres unmarked) [Example Z270, (2-((2-Hydroxy-1-(pyridin-3-yl)ethyl)amino)thieno[3,2-d]pyrimidin-4-yl)(pyrrolidin-1-yl)methanone]
2.15 | > 500 | > 500 | O=C(c1nc(NCCn2ccnc2)nc2ccsc12)N1CCCC1 [Example Z273, (2-((2-(1H-Imidazol-1-yl)ethyl)amino)thieno[3,2-d]pyrimidin-4-yl)(pyrrolidin-1-yl)methanone]
1.11 | 100 to 500 | 100 to 500 | C[C@H](Nc1nc(C(=O)N2CC[C@H](S(C)(=O)=O)C2)c2sccc2n1)c1ccccn1 [Example Z274]
14.69 | 100 to 500 | > 500 | C[C@H](Nc1nc(C(=O)N2CCCOC2)c2sccc2n1)c1ccccn1 [Example Z289, (S)-(1,3-Oxazinan-3-yl)(2-((1-(pyridin-2-yl)ethyl)amino)thieno[3,2-d]pyrimidin-4-yl)methanone]
1.63 | > 500 | > 500 | C[C@H](Nc1nc(C(=O)NCc2nccn2C)c2sccc2n1)c1ccccn1 [Example Z290, (S)—N-((1-Methyl-1H-imidazol-2-yl)methyl)-2-((1-(pyridin-2-yl)ethyl)amino)thieno[3,2-d]pyrimidine-4-carboxamide]
1.07 | 100 to 500 | 100 to 500 | CO[C@H]1C[C@@H](NC(=O)c2nc(N[C@@H](C)c3cccnc3)nc3ccsc23)C1 [Example Z296, N-((1s,3R)-3-Methoxycyclobutyl)-2-(((S)-1-(pyridin-3-yl)ethyl)amino)thieno[3,2-d]pyrimidine-4-carboxamide]
3.08 | 50 to 100 | 100 to 500 | C[C@H](Nc1nc(C(=O)Nc2ccccc2)c2sccc2n1)c1ccccn1 [Example Z303, (S)—N-Phenyl-2-((1-(pyridin-2-yl)ethyl)amino)thieno[3,2-d]pyrimidine-4-carboxamide]
2.03 | 100 to 500 | 100 to 500 | C[C@H](Nc1nc(C(=O)NCc2ncc[nH]2)c2sccc2n1)c1ccccn1 [Example Z304, (S)—N-((1H-Imidazol-2-yl)methyl)-2-((1-(pyridin-2-yl)ethyl)amino)thieno[3,2-d]pyrimidine-4-carboxamide]
40.62 | 10 to 50 | > 500 | C[C@H](Nc1nc(C(=O)N[C@H]2C[C@H](O)C2)c2sccc2n1)c1cncc(Cl)c1 [Example Z306, 2-(((S)-1-(5-Chloropyridin-3-yl)ethyl)amino)-N-((1r,3S)-3-hydroxycyclobutyl)thieno[3,2-d]pyrimidine-4-carboxamide]
5.89 | 10 to 50 | 100 to 500 | COc1cncc(NC(=O)c2nc(N[C@@H](C)c3ccccn3)nc3ccsc23)c1 [Example Z307, (S)—N-(5-Methoxypyridin-3-yl)-2-((1-(pyridin-2-yl)ethyl)amino)thieno[3,2-d]pyrimidine-4-carboxamide]
0.29 | > 500 | 100 to 500 | C[C@H](Nc1nc(C(=O)N2CC[C@@H](NC(=O)OC(C)(C)C)C2)c2sccc2n1)c1cccnc1 [Example Z313, tert-Butyl ((R)-1-(2-(((S)-1-(pyridin-3-yl)ethyl)amino)thieno[3,2-d]pyrimidine-4-carbonyl)pyrrolidin-3-yl)carbamate]
